Patent US12171732B2, “Compositions and use of N-chlorotaurine for treatment and prevention of respiratory infections” (priority 2021, dated 2024)
Where two headings read alike, the source gives them in different places.

Legend:
[1] = system: Influenza A/Singapore/Hongkong/2339/2000 (H1N1); format: cell-based, Influenza A virus
[2] = after the end of an inhalation of 1.0% NCT, cited from earlier work
SARS-CoV-2 [3] = assay: Prophylaxis of contact persons with 1% NCT nose/throat spray; format: in vivo, human
Description: NCT may also be applied as nose/throat spray/rinse solution for prevention/prophylaxis of worsening or contagiousity to other persons. Even in case of low or no symptoms, 1% NCT aqueous solution may be used as a nose spray (two-three puffs (about 0.1 ml/puff) per nostril during forced nasal inspiration) and/or throat spray (three-four puffs (about 0.1 ml/puff) in the back of the mouth to the throat). Alternatively, 1% NCT aqueous solution may be used as a nasal rinse (10 ml to 20 ml instilled for 30 seconds up to 1 minute) and/or throat gargling solution (10 ml to 20 ml for 30 seconds up to 1 minute). This may be repeated at least two times per day or after close contact with other persons.
Spouse, person. (Day 7 of spouse's infection) dose time and symptoms: 2:10 PM—No symptoms 8:25 PM—No symptoms. (Day 8 of spouse's infection) dose time and symptoms: 2:40 PM—No symptoms 11:30 PM—No symptoms. (Day 9 of spouse's infection) dose time and symptoms: 11:10 AM—No symptoms 7:15 P. No symptoms.

[4] = system: Influenza A/Panama/2007/1999 (H3N2); format: cell-based, Influenza A virus; conditions: 1.0% NCT, within 5 min, plaque assay (FIG. 2A)
inoculated cell culture = assay: MTT testing of cytotoxicity of inactivated NCT; format: cell-based; conditions: 0.1% NCT plus 0.1% met/his (inactivated NCT); PBS control 100.3±5.6
From the text: The antiviral activity was concentration-dependent. […] This was valid for all tests and viruses in this study.

[5] = cited from earlier work
SARS-CoV-2 [6] = format: in vivo, human
[7] = system: SARS-CoV-2, clinical isolate; assay: Virus inactivation assay with immunostaining readout (Vero/TMPRSS2/ACE2 cells); format: cell-based; conditions: 1% NCT, 37° C.
Description: (§1) FIG. 1C presents inactivation of SARS-Cov-2 (SARS-CoV-2, clinical isolate) by NCT. Virus suspension (SARS-CoV-2, clinical isolate) was incubated with 1% NCT or PBS for 1 min, 5 min, 7 min, 10 min, 20 min, and 30 min at 37° C. After inactivation of NCT and serial dilution, aliquots were added to Vero/TMPRSS2/ACE2 cells for 1 h in 96-well plates. Cells were washed, incubated for further 9 h, and fixed for Immunostaining (c) or RT-qPCR (d). In immunostaining, infected cells were visible as red spots and counted using an ImmunoSpot S6 Ultra-V reader and CTL analyser BioSpot® 5.0 software. Mean values±SD of three independent experiments.
(§2) Inactivation of SARS-CoV-2 wild type isolates from early 2020 was assessed by incubating stock virus with NCT for indicated time periods at 37° C. and then determining the remaining infectious particles using plaque assay or immunostaining as well as determining virus inactivation via RT-qPCR or TCID50. Exact incubation times of virus with NCT were ensured by adding met/his at the end of the incubation period, which inactivates NCT.

SARS-CoV-2 [8] = assay: Treatment of hospitalized COVID-19 patients with NCT solution for inhalation; format: in vivo, human
Description: The effect of an inhalation solution of NCT-Na is tested in patients who suffer from COVID-19 (infection with SARS-CoV-2). The solution consists of 1% NCT sodium in distilled water.

SARS-CoV-2 BavPat1 = assay: Inactivation of SARS-CoV-2 by NCT, plaque titration; format: cell-based
Description: FIG. 1A presents inactivation of SARS-Cov-2 (BAvPat1) by NCT. Virus suspension (SARS-CoV-2 BavPat1) was incubated with 1.0% (55 mM) NCT, 0.1% (5.5 mM) NCT, 1.0% NCT with 5.0% peptone or PBS or 5.0% peptone for 5 min, 15 min, 30 min, or 60 min at 37° C., after which samples were diluted 1:1 in met/his solution for inactivation of NCT. Remaining infectious virus particles were determined using plaque titration. To control for inactivation of NCT by met/his, virus was added after dilution of 1.0% NCT with or without peptone in met/his. Mean values±SD of three to eight independent experiments in duplicates. The dotted line indicates the detection limit (0.84 log10). Data were statistically analyzed using a two-way ANOVA including a Dunnett's multiple comparison test to PBS controls. *p<0.05, **p<0.01, ***p<0.001, ****p<0.0001.
Inactivation of SARS-CoV-2 wild type isolates from early 2020 was assessed by incubating stock virus with NCT for indicated time periods at 37° C. and then determining the remaining infectious particles using plaque assay or immunostaining as well as determining virus inactivation via RT-qPCR or TCID50. […]
With plaque assay readout, a significant reduction in infectious particles was detected after 15 min of incubation, when incubating SARS-CoV-2 with NCT in a buffered aqueous solution (FIG. 1A). […]

[9] = system: SARS-CoV-2 hCoV-19/Australia/VIC01/2020; assay: as above; format: cell-based; conditions: 1.0% NCT in the presence of Vero cells, 37° C. (FIG. 1B)
Description: FIG. 1B presents inactivation of SARS-Cov-2 (hCoV-19/Australia/VIC01/2020) by NCT. Virus suspension (SARS-CoV-2 h CoV-19/Australia/VIC01/2020) was incubated with NCT or PBS or isopropanol (positive control) for 5 min, 10 min, 20 min, and 60 min at 37° C. and then diluted 1:1 in met/his for inactivation of NCT, followed by plaque titration. Mean values±SD of three independent experiments. Detection limit 3.11 log10 (dotted line).
as §2
With plaque assay readout, a significant reduction in infectious particles was detected after 15 min of incubation, when incubating SARS-CoV-2 with NCT in a buffered aqueous solution (FIG. 1A). The mild oxidizing activity of the test antiseptic may explain why it took as long as 15 min to reduce infectious particles. In the presence of Vero cells (FIG. 1B) or particularly 5.0% peptone (FIG. 1A), however, a significant reduction of infectious virus particles occurred already after 5 min of incubation with 1.0% NCT. […]

[10] = target: SARS-CoV-2 3C-like proteinase (Severe acute respiratory syndrome coronavirus 2, UniProt P0DTD1); assay: Structural changes of 3C-like proteinase by NCT, mass spectrometry; format: biochemical; conditions: 1% NCT, 30 min, 37° C.
From the text: FIG. 5 presents Chlorination of tyrosines and histidines and oxidation of methionines and cysteines of SARS-CoV-2 3C-like proteinase by NCT.
Seven methionines and four cysteines were oxidized.

RSV long strain = format: cell-based, respiratory syncytial virus
[11] = system: SARS-CoV-2, clinical isolate; assay: Virus inactivation assay with RT-qPCR readout (SARS-CoV-2 E Gene); format: cell-based; conditions: 1% NCT, 37° C., RT-qPCR (FIG. 1D)
Description: as §1
FIG. 1D presents inactivation of SARS-Cov-2 by NCT. After cell lysis and RNA extraction, one-step RT-qPCR assay was performed using the iTaq™ RT-PCR (BIO-RAD) kit and previously published primers and probes specific for detection of the SARS-CoV-2 E Gene on a CFX96™ real-time system (BIO-RAD). Mean values±SD of genome copies of three independent experiments. Detection limit 2.10 log10 RNA copies/ml (dotted line).

[12] = system: Influenza A/California/Swine Origin Virus/2009 (H1N1pdm); format: cell-based; conditions: 1.0% NCT
[13] = in vivo; cited from earlier work

## Cl.N [Ammonium chloride, ammonium chloride, reference compound]
[1]; ammonium chloride alone, up to 10 min incubation time
  antiviral effect: no antiviral effect

## O=S(=O)(O)CCNCl [NCT, N-chlorotaurine]
[2]; after decrease to traces
  further time until active chlorine vanishes completely: 10 min
[2]
  time for concentration of active chlorine to decrease to traces: ≤ 1 min
[1]; 0.1% NCT plus 0.1% ammonium chloride versus 0.1% NCT (FIG. 2D)
  effect of addition of ammonium chloride (NH4Cl) on activity against influenza viruses: significantly enhanced
[1]; 1.0% NCT
  time to reduction to the detection limit: ≤ 1 min
[1]; 1.0% NCT, within 1 min, plaque assay (FIG. 2C)
  log10 reduction of virus: 6 log10
SARS-CoV-2 [3]; Example 2: wife and three teenagers in the same home, 1% NCT nose and throat spray 3 times daily
  infection status of family members: remained negative
SARS-CoV-2 [3]; Example 4: spouse, Day 7 to Day 9 of husband's infection
  symptoms of spouse: No symptoms
SARS-CoV-2 [3]; several cases, use of the 1% NCT nasal spray
  infection status of persons with close contact to COVID-19 positive persons: remained negative
[4]
  log10 reduction of virus: 2 log10
Inoculated cell culture
  MTT reduction: 94.1±8.5
[5]; human, in vivo
  systemic distribution: not distributed systemically
[5]; inhaled NCT, humans, phase I, chlorine taste and occasional tickle in the throat
  adverse effects: Only minor and transient adverse effects
SARS-CoV-2 [6]; Example 1 patient, Day 0, two hours after start of 1% NCT nasal spray and gargling
  PCR of nose and throat smear, positive after cycles: 30-32 cycles
SARS-CoV-2 [6]; Example 1 patient, Day 3, after 1% NCT therapy was stopped
  PCR of throat/nostril swab, positive after cycles: 25 cycles
SARS-CoV-2 [6]; Example 1 patient, Day 4 to Day 11, after 1% NCT therapy Day 0 to Day 2
  complaints: no complaints
SARS-CoV-2 [6]; Example 1 patient, Day 6
  PCR of nose-throat smear, positive after cycles: 27 cycles
SARS-CoV-2 [6]; Example 1 patient, Day 13 (max cycle number 45)
  throat and nasal smear control PCR, weakly positive after cycles: 36.5 cycles
SARS-CoV-2 [6]; Example 1 patient, Day 19
  throat and nasal smear control PCR: negative
SARS-CoV-2 [6]; Example 2 patient, Day 1 evening, two hours after dosing, 14 cycles before NCT treatment
  swab PCR ct value: 20-22 cycles
SARS-CoV-2 [6]; Example 2 patient, after 10 days quarantine
  swab result: swab negative
SARS-CoV-2 [6]; Example 2 patient, evening of day 4, 1% NCT nose spray and gargling 3× daily
  swab PCR ct value: 31-34 cycles
SARS-CoV-2 [6]; Example 2 patient, morning of Day 6, 14 hours after the last dosing of NCT
  swab PCR ct value: 31-34 cycles
SARS-CoV-2 [6]; Example 4 patient, Day 10, 1% NCT nasal and throat spray since Day 4
  symptoms: No symptoms
[7]; after 1 min (not significant, p=0.085)
  reduction of infected cells: 50%
[7]; after 5 min
  reduction of infected cells: 20-80%
[7]; after 7 min
  reduction of infected cells: 81-91%
[7]; after 10 min
  reduction of infected cells: 81-97%
[7]; after 20 min
  reduction of infected cells: 96-99%
[7]; after 30 min
  reduction of infected cells: > 99%
SARS-CoV-2 [8]; another 20 hospitalized patients, same treatment
  course of disease during treatment: no progression of the disease and lung failure was avoided
SARS-CoV-2 [8]; eight hospitalized patients, 3 ml 1% NCT sodium inhaled 3 times a day for 1 week to 9 days via nebulizer
  outcome on leaving the hospital: symptom-free or largely symptom-free
SARS-CoV-2 BavPat1; 1.0% NCT in the presence of 5.0% peptone, 37° C. (FIG. 1A)
  incubation time after which a significant reduction of infectious virus particles occurred: 5 min
SARS-CoV-2 BavPat1; NCT in buffered aqueous solution, 37° C., plaque assay (FIG. 1A)
  incubation time after which a significant reduction in infectious particles was detected: 15 min
[9]
  incubation time after which a significant reduction of infectious virus particles occurred: 5 min
[10]
  cysteines oxidized: four
  histidines chlorinated: two
  methionines oxidized: Seven
  tyrosines chlorinated: 3
RSV long strain; 0.1% NCT, 37° C.
  incubation time to significant titre reduction: 15 min
RSV long strain; 1.0% NCT, after 15 minutes
  infectious RSV measurable: Almost no detectable amount of infectious RSV
RSV long strain; 1.0% NCT, within 5 minutes, 37° C. (FIG. 3)
  log10 decrease of infectious virus titre: 4 log10
[11]
  reduction of genome copies: highly significant reduction of genome copies
[12]
  time to reduction to the detection limit: ≤ 1 min
[12]; within 1 min, plaque assay (FIG. 2B)
  log10 reduction of virus: 6 log10

## Cc1ccc(S(=O)(=O)[N-]Cl)cc1.[Na+] [chloramine T]
[13]
  effects after inhalative application: asthmatic and inflammatory symptoms
